Results from ChEMBL document CHEMBL1201862, “PubChem BioAssay data set” (2004).
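1) Cells in 96-well plates. 2) Compound, 48 h, 5 concentrations. 3) Linear interpolation between surrounding doses. 4) Unreached endpoint = highest concentration. At the GI50, growth is halved.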 The source made the active and inactive calls. Rule as the data show it: active = GI50 up to about 1.1 µM and inactive = higher.

Experiments:
Test in all cases: NCI anticancer screen, dose series, 48 h
A498 = test system: A498
CCRF-CEM = test system: CCRF-CEM
COLO 205 = test system: COLO 205
EKVX = test system: EKVX
MOLT-4 = test system: MOLT-4
Malme-3M = test system: Malme-3M
NCI-H522 = test system: NCI-H522
SF-268 = test system: SF-268
SF-295 = test system: SF-295
SF-539 = test system: SF-539
SK-MEL-28 = test system: SK-MEL-28
SK-MEL-2 = test system: SK-MEL-2
SK-MEL-5 = test system: SK-MEL-5
SNB-75 = test system: SNB-75
U-251 = test system: U-251
UACC-257 = test system: UACC-257
MCF7 = test system: MCF7
MDA-MB-231 = test system: MDA-MB-231
MDA-MB-435 = test system: MDA-MB-435
PC-3 = test system: PC-3

SMILES | GI50 (A498) | GI50 (CCRF-CEM) | GI50 (COLO 205) | GI50 (EKVX) | GI50 (MOLT-4) | GI50 (Malme-3M) | GI50 (NCI-H522) | GI50 (SF-268) | GI50 (SF-295) | GI50 (SF-539) | GI50 (SK-MEL-28) | GI50 (SK-MEL-2) | GI50 (SK-MEL-5) | GI50 (SNB-75) | GI50 (U-251) | GI50 (UACC-257) | GI50 (MCF7) | GI50 (MDA-MB-231) | GI50 (MDA-MB-435) | GI50 (PC-3)
[O-][n+]1c(-c2ccccc2)c2nc3ccccc3nc2c2ccccc21 | > 100 µM (inactive) | > 100 µM (inactive) | > 100 µM (inactive) | > 100 µM (inactive) | > 100 µM (inactive) | > 100 µM (inactive) | > 100 µM (inactive) | > 100 µM (inactive) | > 100 µM (inactive) | > 100 µM (inactive) | > 100 µM (inactive) | > 100 µM (inactive) | > 100 µM (inactive) | 31.1 µM (inactive) | > 100 µM (inactive) | > 100 µM (inactive) |  |  |  | 
CN(C)CC/[N+]([O-])=C(/c1ccccc1)C12CC3CC(CC(C3)C1)C2 | 18.3 µM (inactive) | 15.8 µM (inactive) | 14 µM (inactive) | 21 µM (inactive) | 16.7 µM (inactive) | 39.7 µM (inactive) | 15.1 µM (inactive) | 20.9 µM (inactive) | 14 µM (inactive) | 16.5 µM (inactive) | 16.2 µM (inactive) | 18.2 µM (inactive) | 17.5 µM (inactive) | 11.9 µM (inactive) | 16 µM (inactive) | 15.9 µM (inactive) |  |  |  | 
CC(=O)Nc1ccc2c(c1)[nH]c(=O)c1cc(Cl)ccc12 | 29.3 µM (inactive) | 0.341 µM (active) | 47.2 µM (inactive) | 26.2 µM (inactive) | 2.23 µM (inactive) | 17.1 µM (inactive) | 27.1 µM (inactive) | 26.9 µM (inactive) | 35.1 µM (inactive) | 40.1 µM (inactive) | 38.8 µM (inactive) | 46.6 µM (inactive) | 15.9 µM (inactive) | 52.4 µM (inactive) | 34.3 µM (inactive) | 20.3 µM (inactive) | 4.48 µM (inactive) | 44.8 µM (inactive) | 23.4 µM (inactive) | 
COc1cc(OC)cc(Oc2nc3ccccc3nc2C(=O)O)c1 | > 100 µM (inactive) | > 100 µM (inactive) | > 100 µM (inactive) | > 100 µM (inactive) | > 100 µM (inactive) | > 100 µM (inactive) | > 100 µM (inactive) | > 100 µM (inactive) | > 100 µM (inactive) |  | > 100 µM (inactive) | > 100 µM (inactive) | > 100 µM (inactive) | > 100 µM (inactive) | > 100 µM (inactive) | > 100 µM (inactive) |  | > 100 µM (inactive) | > 100 µM (inactive) | > 100 µM (inactive)
CC[C@@]1(C)CCC2c3ccc(O)cc3CC[C@H]2C1C (stereo partly specified) | 19.6 µM (inactive) | 16.5 µM (inactive) | 17 µM (inactive) | 18.2 µM (inactive) | 14.8 µM (inactive) | 16.6 µM (inactive) | 19.3 µM (inactive) | 15.5 µM (inactive) | 18.8 µM (inactive) | 19.9 µM (inactive) | 17.8 µM (inactive) | 18.6 µM (inactive) | 16.9 µM (inactive) | 19.9 µM (inactive) | 17 µM (inactive) | 15.7 µM (inactive) | 15.1 µM (inactive) |  | 15.6 µM (inactive) | 19.8 µM (inactive)
Cc1cc(N(CCC#N)CCC#N)ccc1/C=C(\NC(=O)/C=C/c1ccccc1)C(=O)N=[N+]=[N-] | > 100 µM (inactive) | > 100 µM (inactive) | > 100 µM (inactive) | > 100 µM (inactive) | > 100 µM (inactive) | > 100 µM (inactive) | 30.4 µM (inactive) | 99.1 µM (inactive) | 17.2 µM (inactive) | 52.5 µM (inactive) | > 100 µM (inactive) | > 100 µM (inactive) | > 100 µM (inactive) | 23 µM (inactive) | 43.1 µM (inactive) | > 100 µM (inactive) |  |  |  | 
O=C1CCCC/C1=C1\C(=O)Nc2cc(F)ccc21 | > 100 µM (inactive) | > 100 µM (inactive) | > 100 µM (inactive) | > 100 µM (inactive) | > 100 µM (inactive) | > 100 µM (inactive) | > 100 µM (inactive) | > 100 µM (inactive) | > 100 µM (inactive) | > 100 µM (inactive) | > 100 µM (inactive) | > 100 µM (inactive) | > 100 µM (inactive) | > 100 µM (inactive) | > 100 µM (inactive) | > 100 µM (inactive) |  |  |  | 
CC(CC(=O)Nc1ccc(NC(=O)CC(C)/N=N\C(N)=O)cc1)/N=N\C(N)=O (stereo unspecified) | > 100 µM (inactive) | > 100 µM (inactive) | 34.8 µM (inactive) | > 100 µM (inactive) | > 100 µM (inactive) | > 100 µM (inactive) | > 100 µM (inactive) | > 100 µM (inactive) | > 100 µM (inactive) | > 100 µM (inactive) | > 100 µM (inactive) | > 100 µM (inactive) | > 100 µM (inactive) | > 100 µM (inactive) | > 100 µM (inactive) | > 100 µM (inactive) |  |  |  | 
